These are literature values, as cited in US20110129510A1, “FIBROUS SURFACE STRUCTURE CONTAINING ACTIVE INGREDIENTS WITH CONTROLLED RELEASE OF ACTIVE INGREDIENTS, USE THEREOF AND METHOD FOR THE PRODUCTION THEREOF” (BASF SE, priority 2008, published 2011).

≈ marks a conversion by molar mass, not a printed value. Like-named read-outs stand apart in the source and are kept apart here.

Regarding `NC(=O)N1c2ccccc2C=Cc2ccccc21` [Carbamazipine], for the setting “RT”, the Solubility in water was 945.1 µg/mL (≈ 4000 µM). Consider `Clc1ccccc1C(c1ccccc1)(c1ccccc1)n1ccnc1` [Clotrimazole], for which the Solubility in water (25° C.) was under 10 µg/mL.

Regarding `CCOC(=O)C1=C(C)NC(C)=C(C(=O)OC)C1c1cccc(Cl)c1Cl` (stereo not drawn) [Felodipine], the Solubility in water (22° C.) was 4.53 µg/mL (≈ 11.8 µM).

Turning to `COC1=CC(=O)C[C@@H](C)[C@]12Oc1c(Cl)c(OC)cc(OC)c1C2=O` [Griseofulvin], the Solubility in water (25° C.) was 0.03685 µg/mL (≈ 0.104 µM). `COc1ccc2c(c1)c(CC(=O)O)c(C)n2C(=O)c1ccc(Cl)cc1` [Indomethacin]: under “25° C.”, the Solubility in water is 14 µg/mL (≈ 39.1 µM).

Take `CC(=O)N1CCN(c2ccc(OCC3COC(Cn4ccnc4)(c4ccc(Cl)cc4Cl)O3)cc2)CC1` (stereo not drawn) [Ketoconazole]: the Solubility in water (37° C.) is 80 µg/mL (≈ 151 µM).
